According to US5873359A, “Methods and devices for treating pulmonary vasoconstriction and asthma” (The General Hospital Corporation, priority 1994, dated 1999):

Experiments:
[1] = system: U46619-induced pulmonary vasoconstriction; experiment: Inhaled NO in lambs with U46619-induced pulmonary vasoconstriction; format: in vivo, Suffolk lambs
Text: (§1) Eight Suffolk lambs weighing 25-35 kg underwent a sterile thoracotomy in order to place a left atrial line, tracheostomy and femoral artery line under general endotracheal anesthesia with halothane/oxygen three days before study. After three days of recovery the lambs underwent sterile placement of a 7 French thermal dilution pulmonary artery monitoring catheter under local anesthesia.
(§2) Awake unanesthetized lambs were studied in order to avoid general anesthesia which can blunt hypoxic vasoconstriction. Lambs were placed in a Babraham cage and allowed to drink and eat ad lib. Two studies were performed 2 days apart on each of six lambs. After the study the lambs were sacrificed with an overdose of barbiturate and heir lungs were fixed, stained and examined by light microscopy for pathological changes.
On the first study day lambs breathing 60-70% oxygen were given an infusion of a potent pulmonary vasoconstrictor, the stable endoperoxide analog (5Z, 9α, 13E, 15S)-11,9-(Epoxymethano)prosta-5,13-dien-1-oic acid (U46619, The Upjohn Company, Kalamazoo, Mich.) of thromboxane at a rate of 0.4-0.8 μg/kg/min. The tracheostomy was connected to a non-rebreathing circuit consisting of a 5 liter reservoir bag and one way valves to isolate inspired from expired gas. Expired gas was scavenged and discarded. The inspired gas was a precise mixture of oxygen and nitrogen immediately diluted with NO to produce the correct inspired concentration. Using volumetrically calibrated flowmeters, varying quantities of NO were mixed with N2 to obtain the desired inspired NO concentration at an inspired oxygen concentration (Fi O2) of 0.6-0.7. The reservoir bag was emptied after each level of NO inhalation. The residence half time of NO in the gas reservoir was 15 seconds or less to minimize conversion to NO2. NO was obtained from Air Products and Chemicals, Inc., Allentown, Pa. as a mixture of 235 ppm NO in pure N2. […] Fontijin, Anal. Chem. 27:1903 (1981).
(§3) Each level of NO exposure was followed by six minutes of breathing the oxygen mixture without NO (FIG. 2). A second exposure to NO was examined for similar periods. Subsequently, a control period breathing the oxygen mixture was studied six minutes after ceasing U46619 infusion. At each three and six minute time period after administering or discontinuing NO during the study, we measured mean and phasic pulmonary artery pressure (PAP), left atrial pressure (LAP), systemic arterial pressure (SAP) and central venous pressure (CVP). All pressures were recorded on a Hewlett Packard multi-channel strip chart recorder with transducers zeroed to atmospheric pressure at the mid point of the thorax (e.g., see FIG. 3). Cardiac output (CO) was measured by thermal dilution as the average of two determinations injecting 5 ml of 0° C. Ringers lactate. Pulmonary vascular resistance (PVR) and systemic vascular resistance (SVR) were computed by standard formulae; PVR measured at each inhaled NO concentration is shown in FIG. 4. Appropriate statistical analyses were performed, and all data were expressed as mean ± standard error.

[2] = system: control lambs; experiment: Inhaled NO in control lambs with no drug infusion; format: in vivo, Suffolk lambs; conditions: 80 ppm NO, FiO2 0.6-0.7, two lambs
Text: as §1, §2
as §3, with “A pulmonary vasodilator dose response curve plotting changes in PAP as a function of inhaled NO concentration during U46619 infusion was produced for eight lambs breathing a series of increasing NO/O2 mixtures of 5, 10, 20, 40, and 80 ppm NO for six minutes (FIG. 1). Each” for “Each”
Two control lambs with no drug infusion breathed 80 ppm NO at an F1 O2 of 0.6-0.7. There was no change of mean PAP, SAP, CO or SVR in these lambs.

[3] = system: PPHN; experiment: NO inhalation in two more infants with PPHN; format: in vivo, human
Text: Subsequent subjects. Two more infants with PPHN have been treated by NO inhalation.

[4] = system: ARDS; experiment: NO inhalation in nine additional ARDS patients; format: in vivo, human
Text: Subsequent subjects. Nine additional patients have been treated for ARDS by NO inhalation, for periods up to 28 days.

[5] = system: haemoglobin; conditions: Meyer 1988; cited from earlier work
[6] = regression vs NO concentration, eight lambs

**Q.** For `[N]=O` [NO, nitric oxide], which PA pressure ([1]; 5 ppm NO (0.89 μg/kg/min)) is on record?
**A.** The PA pressure was “significantly reduced the PA pressure”.

**Q.** And the vasodilator response ([1]; 40 or 80 ppm NO)?
**A.** Its vasodilator response is “almost complete vasodilator response”.

**Q.** And the PAP ([1]; 80 ppm NO for one hour, four lambs)?
**A.** The PAP was “pulmonary vasodilation to a normal PAP”.

**Q.** And the “time to nearly maximal vasodilator effect” value ([1]; FIG. 3)?
**A.** Its value is “within three minutes”.

**Q.** What about the “pulmonary hypertension after NO inhalation” value ([1]; after 80 ppm NO for one hour, four lambs) of the same molecule?
**A.** The value was “pulmonary hypertension recurring after NO inhalation”.

**Q.** And the “onset of pulmonary vasodilation” value ([1]; after beginning NO inhalation)?
**A.** Its value is “within seconds”.

**Q.** And the “return to prior level of vasoconstriction after ceasing NO” value ([1]; after ceasing to inhale NO)?
**A.** Its value is “within three to six minutes”.

**Q.** What about the “pulmonary vasoconstriction and pulmonary hypertension” value ([1]; all dose levels of NO (5-80 ppm)) of the same molecule?
**A.** Its value is “prompt reduction of the pulmonary vasoconstriction and pulmonary hypertension”.

**Q.** And the CO [1, 6]?
**A.** The CO was “no significant change”.

**Q.** And the SVR [1, 6]?
**A.** The SVR was “no significant change”.

**Q.** What about the “mean SAP” value [1, 6] of the same molecule?
**A.** The value was “no significant change”.

**Q.** What about the “vasodilator response of second exposure” value ([1]; second exposure to 5, 10 and 20 ppm NO) of the same molecule?
**A.** Its value is “no significant reduction from the prior series of exposures”.

**Q.** And the CO [2]?
**A.** Its CO is “no change”.

**Q.** And the SAP [2]?
**A.** Its SAP is “no change”.

**Q.** And the SVR [2]?
**A.** The SVR was “no change”.

**Q.** What about the “mean PAP” value [2] of the same molecule?
**A.** Its value is “no change”.

**Q.** What about the preductal oxygenation ([3]; 20-80 ppm NO) of the same molecule?
**A.** Its preductal oxygenation is “increases in preductal oxygenation”.

**Q.** What about the response ([3]; 20-80 ppm NO) of the same molecule?
**A.** Its response is “excellent response”.

**Q.** And the survival ([3]; 20-80 ppm NO, two infants)?
**A.** Its survival is “both survived longterm”.

**Q.** What about the “need for ECMO” value ([3]; one of the infants, NO inhalation alone) of the same molecule?
**A.** The value was “ECMO was altogether avoided”.

**Q.** What about the methemoglobin levels ([4]; NO inhalation up to 28 days) of the same molecule?
**A.** Its methemoglobin levels is “No important increase of methemoglobin levels”.

**Q.** And the PAP ([4]; during NO breathing)?
**A.** Its PAP is “reduced PAP”.

**Q.** And the “QVA /QT” value ([4]; during NO breathing)?
**A.** Its value is “marked reductions of QVA /QT”.

**Q.** What about the survival ([4]; nine patients, up to 28 days) of the same molecule?
**A.** The survival was “Seven survived”.

**Q.** What about the binding to haemoglobin [5] of the same molecule?
**A.** The binding to haemoglobin was “the most rapidly binding ligand to haemoglobin so far discovered”.
